Test results taken from US8901307B2, “Chemical compounds 251” (AstraZeneca AB, priority 2008, dated 2014).
Structures can show the parent of a compound that is named as a salt.

Legend:
human His-PIM1 [2-313] = target: T1, human His-PIM1 [2-313] (Homo sapiens, UniProt P11309); assay: PIM1 in-vitro mobility shift assay (Caliper LC3000, FL-Ahx-Bad phosphorylation); assay type: biochemical; settings: 1.5 h; percent inhibition at 0.3 uM compound; read-out: PIM1 % I at 0.3 uM
T1 construct: purified human His-PIM1 [2-313] enzyme; His (N); purchased University of Dundee, Scotland; host or cells: baculovirus system
Source text: PIM1 In-Vitro Mobility Shift Assay
(§1) One may determine the activity of purified human His-PIM1 [2-313] enzyme in-vitro using a mobility shift assay on a Caliper LC3000 reader (Caliper, Mass.), which measures fluorescence of a phosphorylated and unphosphorylated FL-Ahx-Bad (FITC-(AHX)RSRHSSYPAGT-COOH, Primm 200606-00289, Primm Biotech, Mass.) and calculates a ratiometric value to determine percent turnover. One may express PIM1 (University of Dundee, Scotland) in baculovirus system with a typical yield of >85% purity.
(§2) One determines phosphorylation of the FL-Ahx-Bad in the presence and absence of the compound of interest. One preincubates 5 µl of Enzyme/Substrate/adenosine triphosphate (ATP) mix consisting of 2.4 nM PIM1, 3.6 uM FL-Ahx-Bad, and 240 uM ATP in 1.2× buffer with 2 ul of compound for 20 minutes at 25° C. One initiates reactions with 5 ul of Metal mix consisting of 24 mM MgCl2 in 1.2× buffer and incubated at 25° C. for 90 minutes and stops the reactions by addition of 5 ul of Stop mix consisting of 100 mM HEPES, 121 mM ethylenediamine tetraacetic acid, 0.8% Coatin Reagent 3 (Caliper, Mass.), and 0.01% Tween. One detects phosphorylated and unphosphorylated substrate by a Caliper LC3000 reader (Caliper, Mass.) in the presence of separation buffer consisting of 100 mM HEPES, 16 mM ethylenediamine tetraacetic acid, 0.1% Coatin Reagent 3 (Caliper, Mass.), 0.015% Brij-35, 5% DMSO, and 5.6 mM MgCl2. One may use the following separation conditions for a Caliper LC3000: −1.0 PSI, −2000 V upstream voltage, −400 V downstream voltage, 0.2 second sample sip, 45 second post sip, 10% laser strength.
The table 1 below provides the percent inhibition of PIM1 at 0.3 micromolar for Examples provided herein. Several examples were tested more than once. Variations in the experimental outcomes, negative values, or values over 100% inhibition are presumably due to experimental error inherent in the assay.

human His-PIM2 [23-299] = target: T2, human His-PIM2 [23-299] (Homo sapiens, UniProt Q9P1W9); assay: PIM2 in-vitro mobility shift assay (Caliper LC3000, FL-Ahx-Bad phosphorylation); assay type: biochemical; settings: 1.5 h; percent inhibition at 0.3 uM compound; read-out: PIM2 % I at 0.3 uM
T2 construct: purified human His-PIM2 [23-299] enzyme; His (N); host or cells: E. coli
Source text: PIM2 In-Vitro Mobility Shift Assay
as §1, with “His-PIM2 [23-299]” for “His-PIM1 [2-313]”, “PIM2 (produced at AstraZeneca, R&D Boston)” for “PIM1 (University of Dundee, Scotland)”, “E. coli cells” for “baculovirus system”, “>90%” for “>85%”
as §2, with “5 uL” for “5 µl”, “and 12” for “and 240”, “5 uL” for “5 ul”, “and incubates” for “and incubated”, “90 minutes. One” for “90 minutes and”, “stops” for “stops the”

T2 sequence (Q9P1W9 23-299): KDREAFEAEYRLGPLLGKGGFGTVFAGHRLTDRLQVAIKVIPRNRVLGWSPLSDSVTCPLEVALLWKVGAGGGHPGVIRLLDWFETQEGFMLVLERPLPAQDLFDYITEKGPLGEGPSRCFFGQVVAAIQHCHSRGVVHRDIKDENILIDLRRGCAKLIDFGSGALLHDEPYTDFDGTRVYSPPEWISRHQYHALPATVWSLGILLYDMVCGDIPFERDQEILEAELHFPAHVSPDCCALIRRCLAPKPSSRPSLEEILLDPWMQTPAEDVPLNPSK
T1 sequence (P11309 2-313): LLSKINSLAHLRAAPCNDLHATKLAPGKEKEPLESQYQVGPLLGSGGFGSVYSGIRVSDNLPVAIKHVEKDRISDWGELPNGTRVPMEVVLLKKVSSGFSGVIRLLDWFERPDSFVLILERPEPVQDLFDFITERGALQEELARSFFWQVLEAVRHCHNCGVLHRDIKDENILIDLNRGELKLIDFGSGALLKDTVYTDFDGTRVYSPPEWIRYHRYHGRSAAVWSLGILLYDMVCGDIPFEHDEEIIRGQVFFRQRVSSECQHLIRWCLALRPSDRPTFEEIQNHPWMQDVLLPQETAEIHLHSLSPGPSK

inhibition at 0.3 µM (human His-PIM1 [2-313]) [%]	inhibition at 0.3 µM (human His-PIM2 [23-299]) [%]	Structure (SMILES)
> 95	69.9	CN(C)[C@H]1CCN(c2c(Cl)cc(C(F)(F)F)cc2/C=C2\SC(=O)NC2=O)C1 [Example 14]
12.9	< 5	O=C1NC(=O)/C(=C/c2cc(C(F)(F)F)cc(Cl)c2N2CCN(c3ccc(Cl)cc3F)CC2)S1 [Example 15]
13.9	< 5	Cc1noc(C2CCCN(c3c(Cl)cc(C(F)(F)F)cc3/C=C3\SC(=O)NC3=O)C2)n1 (stereo not shown) [Example 16]
29.8	< 5	O=C1NC(=O)/C(=C/c2cc(C(F)(F)F)cc(Cl)c2N2CCN(Cc3ccncc3)CC2)S1 [Example 17]
< 5	< 5	O=C1NC(=O)/C(=C/c2cc(C(F)(F)F)cc(Cl)c2N2CCN(Cc3ccccc3Cl)CC2)S1 [Example 18]
> 95	38.3	CN1CCC(N2CCN(c3c(Cl)cc(C(F)(F)F)cc3/C=C3\SC(=O)NC3=O)CC2)CC1 [Example 19]
86.5	19.1	O=C1NC(=O)/C(=C/c2cc(C(F)(F)F)cc(Cl)c2N2CCN(CCN3CCOCC3)CC2)S1 [Example 20]
82.9	15.8	O=C1NC(=O)/C(=C/c2cc(C(F)(F)F)cc(Cl)c2N2CCN(CC3CC3)CC2)S1 [Example 21]
81.9	8.5	O=C1NC(=O)/C(=C/c2cc(C(F)(F)F)cc(Cl)c2N2CCC(N3CCOCC3)CC2)S1 [Example 22]
87.6	19.7	O=C1NC(=O)/C(=C/c2cc(C(F)(F)F)cc(Cl)c2N2CCN(CCCO)CC2)S1 [Example 23]
> 95	44.3	CN(C)C1CCN(c2c(Cl)cc(C(F)(F)F)cc2/C=C2\SC(=O)NC2=O)CC1 [Example 24]
> 95	68.4	CN(C)CCCN(C)c1c(Cl)cc(C(F)(F)F)cc1/C=C1\SC(=O)NC1=O [Example 25]
> 95	49.6	O=C1NC(=O)/C(=C/c2cc(C(F)(F)F)cc(Cl)c2N2CCCN(CCO)CC2)S1 [Example 26]
90.8	25.1	CCCCN1CCCN(c2c(Cl)cc(C(F)(F)F)cc2/C=C2\SC(=O)NC2=O)CC1 [Example 27]
90	27.4	O=C1NC(=O)/C(=C/c2cc(C(F)(F)F)cc(Cl)c2N2CCN(CCO)CC2)S1 [Example 28]
90.8	15.6	CC(C)(C)N1CCN(c2c(Cl)cc(C(F)(F)F)cc2/C=C2\SC(=O)NC2=O)CC1 [Example 30]

inhibition at 0.3 µM (human His-PIM1 [2-313]) [%]	inhibition at 0.3 µM (human His-PIM2 [23-299]) [%]	Structure (SMILES)
92.8	23.3	O=C1NC(=O)/C(=C/c2cc(C(F)(F)F)cc(Cl)c2N2CCC(N3CCCCC3)CC2)S1 [Example 31]
94	31.9	CN1CCN(c2c(Cl)cc(C(F)(F)F)cc2/C=C2\SC(=O)NC2=O)CC1 [Example 32]
> 95	> 95	CN(C)[C@H]1CCN(c2c(Br)cccc2/C=C2\SC(=O)NC2=O)C1 [Example 33, (S,Z)-5-(3-bromo-2-(3-(dimethylamino)pyrrolidin-1-yl)benzylidene)thiazolidine-2,4-dione hydrochloride]
> 95	39.3	C[C@@H]1CN(c2ccc(C(F)(F)F)cc2/C=C2\SC(=O)NC2=O)C[C@H](C)N1 [Example 34, (Z)-5-(2-((3S,5R)-3,5-dimethylpiperazin-1-yl)-5-(trifluoromethyl)benzylidene)thiazolidine-2,4-dione hydrochloride]
< 5	< 5	COc1cccc(/C=C2\SC(=O)NC2=O)c1N1C[C@@H](C)N[C@@H](C)C1 [Example 35, (Z)-5-(2-((3S,5R)-3,5-dimethylpiperazin-1-yl)-3-methoxybenzylidene)thiazolidine-2,4-dione]
> 95	> 95	COc1cccc(/C=C2\SC(=O)NC2=O)c1N1CC[C@H](N(C)C)C1 [Example 36, (S,Z)-5-(2-(3-(dimethylamino)pyrrolidin-1-yl)-3-methoxybenzylidene)thiazolidine-2,4-dione]
89.7	69.4	C[C@@H]1CN(c2c(Cl)cccc2/C=C2\SC(=O)NC2=O)C[C@H](C)N1 [Example 37, (Z)-5-(3-chloro-2-((3S,5R)-3,5-dimethylpiperazin-1-yl)benzylidene)thiazolidine-2,4-dione]
> 95	92.9	CN(C)[C@H]1CCN(c2c(Cl)cccc2/C=C2\SC(=O)NC2=O)C1 [Example 38, (S,Z)-5-(3-chloro-2-(3-(dimethylamino)pyrrolidin-1-yl)benzylidene)thiazolidine-2,4-dione]
89.4	57.3	COc1cc(/C=C2\SC(=O)NC2=O)c(N2CC[C@@H](N(C)C)C2)cc1OC [Example 39, (R,Z)-5-(2-(3-(dimethylamino)pyrrrolidin-1-yl)-4,5-dimethoxybenzylidene)thiazolidine-2,4-dione]
> 95	89.8	COc1cc(/C=C2\SC(=O)NC2=O)c(N2CC[C@H](N(C)C)C2)cc1OC [Example 40, (S,Z)-5-(2-(3-(dimethylamino)pyrrolidin-1-yl)-4,5-dimethoxybenzylidene)thiazolidine-2,4-dione]
74	25.1	COc1cc(/C=C2\SC(=O)NC2=O)c(N2CCC(CO)CC2)cc1OC [Example 41, (5Z)-5-{2-[4-(hydroxymethyl)piperidin-1-yl]-4,5-dimethoxybenzylidene}-1-,3-thiazolidine-2,4-dione]
58.8	23.3	COc1cc(/C=C2\SC(=O)NC2=O)c(N2CCC(O)CC2)cc1OC [Example 42, (5Z)-5-[2-(4-hydroxypiperidine-1-yl)-4,5-dimethoxybenzylidene]-1,3-thiazolidine-2,4-dione]
55.4	14.7	COc1ccc(N2CCC(N(C)C)C2)c(/C=C2\SC(=O)NC2=O)c1 (stereo not shown) [Example 43, (5Z)-5-{2-[3-(dimethylamino)pyrrolidin-1-yl]-5-methoxybenzylidene}-1,3-thiazolidine-2,4-dione]
83.8	46.7	COc1ccc(N2CCC(N(C)C)CC2)c(/C=C2\SC(=O)NC2=O)c1 [Example 44, (5Z)-5-{2-[4-(dimethylamino)piperidin-1-yl]-5-methoxybenzylidene}-1,3-thiazolidine-2,4-dione]
40.1	14.3	COc1cc(/C=C2\SC(=O)NC2=O)c(N2CCC(O)C2)cc1OC (stereo not shown) [Example 45, (5Z)-5-[2-(3-hydroxypyrrolidin-1-yl)-4,5-dimethoxybenzylidene]-1,3-thiazolidine-2,4-dione]
13.4	15.7	COc1cc(/C=C2\SC(=O)NC2=O)c(N2CCCC2)cc1OC [Example 46, (5Z)-5-(4,5-dimethoxy-2-pyrrolidin-1-ylbenzylidene)-1,3-thiazolidine-2,4-dione]
